The CheMixHub viscosity set
± gives the uncertainty stated by the source.

Test: xn = mol fraction of the nth substance listed

CCCCCCCO + COC(=O)OC
Conditions | viscosity [mPa·s]
293.15 K, 101 kPa, x2 = 0.04189 | 6.005
293.15 K, 101 kPa, x2 = 0.08197 | 5.163
293.15 K, 101 kPa, x2 = 0.1998 | 3.52
293.15 K, 101 kPa, x2 = 0.2986 | 2.615
293.15 K, 101 kPa, x2 = 0.4163 | 1.928
293.15 K, 101 kPa, x2 = 0.482 | 1.64
293.15 K, 101 kPa, x2 = 0.6031 | 1.231
293.15 K, 101 kPa, x2 = 0.7204 | 0.956
293.15 K, 101 kPa, x2 = 0.7985 | 0.818
293.15 K, 101 kPa, x2 = 0.9076 | 0.691
293.15 K, 101 kPa, x2 = 0.9573 | 0.661
303.15 K, 100 kPa, x2 = 0.0999 | 3.588 ± 0.11
303.15 K, 100 kPa, x2 = 0.2 | 2.668 ± 0.082
303.15 K, 100 kPa, x2 = 0.3001 | 2.033 ± 0.062
303.15 K, 100 kPa, x2 = 0.4 | 1.59 ± 0.049
303.15 K, 100 kPa, x2 = 0.5001 | 1.275 ± 0.039
303.15 K, 100 kPa, x2 = 0.6 | 1.061 ± 0.033
303.15 K, 100 kPa, x2 = 0.7 | 0.869 ± 0.027
303.15 K, 100 kPa, x2 = 0.8 | 0.707 ± 0.022
303.15 K, 100 kPa, x2 = 0.8999 | 0.609 ± 0.019
303.15 K, 101 kPa, x2 = 0.06371 | 4.012
303.15 K, 101 kPa, x2 = 0.1014 | 3.549
303.15 K, 101 kPa, x2 = 0.2001 | 2.661
303.15 K, 101 kPa, x2 = 0.2928 | 2.07
303.15 K, 101 kPa, x2 = 0.4019 | 1.583
303.15 K, 101 kPa, x2 = 0.4949 | 1.282
303.15 K, 101 kPa, x2 = 0.5788 | 1.071
303.15 K, 101 kPa, x2 = 0.715 | 0.817
303.15 K, 101 kPa, x2 = 0.7902 | 0.719
303.15 K, 101 kPa, x2 = 0.9063 | 0.607
303.15 K, 101 kPa, x2 = 0.9354 | 0.584
308.15 K, 100 kPa, x2 = 0.0999 | 3.119 ± 0.096
308.15 K, 100 kPa, x2 = 0.2 | 2.351 ± 0.072
308.15 K, 100 kPa, x2 = 0.3001 | 1.809 ± 0.056
308.15 K, 100 kPa, x2 = 0.4 | 1.434 ± 0.044
308.15 K, 100 kPa, x2 = 0.5001 | 1.149 ± 0.035
308.15 K, 100 kPa, x2 = 0.6 | 0.964 ± 0.03
308.15 K, 100 kPa, x2 = 0.7 | 0.789 ± 0.024
308.15 K, 100 kPa, x2 = 0.8 | 0.66 ± 0.02
308.15 K, 100 kPa, x2 = 0.8999 | 0.57 ± 0.018
313.15 K, 100 kPa, x2 = 0.0999 | 2.725 ± 0.084
313.15 K, 100 kPa, x2 = 0.2 | 2.077 ± 0.064
313.15 K, 100 kPa, x2 = 0.3001 | 1.616 ± 0.05
313.15 K, 100 kPa, x2 = 0.4 | 1.288 ± 0.04
313.15 K, 100 kPa, x2 = 0.5001 | 1.049 ± 0.032
313.15 K, 100 kPa, x2 = 0.6 | 0.875 ± 0.027
313.15 K, 100 kPa, x2 = 0.7 | 0.73 ± 0.023
313.15 K, 100 kPa, x2 = 0.8 | 0.612 ± 0.019
313.15 K, 100 kPa, x2 = 0.8999 | 0.536 ± 0.017
313.15 K, 101 kPa, x2 = 0.04009 | 3.253
313.15 K, 101 kPa, x2 = 0.09588 | 2.743
313.15 K, 101 kPa, x2 = 0.2155 | 1.974
313.15 K, 101 kPa, x2 = 0.3104 | 1.571
313.15 K, 101 kPa, x2 = 0.4052 | 1.267
313.15 K, 101 kPa, x2 = 0.4938 | 1.054
313.15 K, 101 kPa, x2 = 0.5968 | 0.859
313.15 K, 101 kPa, x2 = 0.7024 | 0.709
313.15 K, 101 kPa, x2 = 0.7953 | 0.613
313.15 K, 101 kPa, x2 = 0.9018 | 0.535
313.15 K, 101 kPa, x2 = 0.9477 | 0.509
318.15 K, 100 kPa, x2 = 0.0999 | 2.392 ± 0.073
318.15 K, 100 kPa, x2 = 0.2 | 1.847 ± 0.057
318.15 K, 100 kPa, x2 = 0.3001 | 1.454 ± 0.045
318.15 K, 100 kPa, x2 = 0.4 | 1.171 ± 0.036
318.15 K, 100 kPa, x2 = 0.5001 | 0.961 ± 0.03
318.15 K, 100 kPa, x2 = 0.6 | 0.809 ± 0.025
318.15 K, 100 kPa, x2 = 0.7 | 0.683 ± 0.021
318.15 K, 100 kPa, x2 = 0.8 | 0.573 ± 0.018
318.15 K, 100 kPa, x2 = 0.8999 | 0.504 ± 0.016
323.15 K, 100 kPa, x2 = 0.0999 | 2.113 ± 0.065
323.15 K, 100 kPa, x2 = 0.2 | 1.651 ± 0.051
323.15 K, 100 kPa, x2 = 0.3001 | 1.31 ± 0.04
323.15 K, 100 kPa, x2 = 0.4 | 1.068 ± 0.033
323.15 K, 100 kPa, x2 = 0.5001 | 0.885 ± 0.027
323.15 K, 100 kPa, x2 = 0.6 | 0.738 ± 0.023
323.15 K, 100 kPa, x2 = 0.7 | 0.638 ± 0.02
323.15 K, 100 kPa, x2 = 0.8 | 0.539 ± 0.017
323.15 K, 100 kPa, x2 = 0.8999 | 0.476 ± 0.015

NS(=O)(=O)O + CN1CCCC1=O
298 K, 101.33 kPa
Conditions | viscosity [mPa·s]
x1 = 0.02005 | 2.01 ± 0.024
x1 = 0.03918 | 2.413 ± 0.029
x1 = 0.05851 | 2.977 ± 0.036
x1 = 0.07708 | 3.724 ± 0.045
x1 = 0.09776 | 4.962 ± 0.062

CCCCC + CCCCCCCCCCCCCCCC
298.15 K, 101.33 kPa
Conditions | viscosity [mPa·s]
x1 = 0.1111 | 2.574 ± 0.031
x1 = 0.2119 | 2.17 ± 0.027
x1 = 0.3099 | 1.816 ± 0.023
x1 = 0.4166 | 1.457 ± 0.018
x1 = 0.5122 | 1.172 ± 0.015
x1 = 0.6089 | 0.9218 ± 0.012
x1 = 0.7034 | 0.7004 ± 0.0096
x1 = 0.8034 | 0.5086 ± 0.0074
x1 = 0.9029 | 0.3464 ± 0.0056
